Measurements as given in patent US20260109715A1, “IMIDAZOPYRIDINE DERIVATIVES WITH BICYCLIC STRUCTURE” (PUBLIC UNIVERSITY CORPORATION YOKOHAMA CITY UNIVERSITY, priority 2022, published 2026).

Tests used:
[1] = tested on: Snhg1 transcript (NMD target gene) in EMT6 murine breast cancer cell line; test: Measurement of NMD inhibitory activity in cells (increase in Snhg1 transcript, real-time PCR); parameters: species or system mouse; details: Mus musculus, 6 hours treatment, concentration giving 1/2 of maximum Snhg1 fold change of positive control, read-out: Test Example 2 Cell-based Snhg1 EC50
Method in brief: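 EMT6 cells treated with serially diluted compound (2% DMSO final) for 6 h; Snhg1 transcript quantified by real-time PCR (ΔΔCT, Tbp endogenous control, untreated wells set to 1). EC50 taken as concentration giving half the maximum fold change of a known NMD inhibitor positive control.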

human SMG1 enzyme = human SMG1 enzyme (Homo sapiens, UniProt Q96Q15); test: Measurement of SMG1 kinase activity (ADP-Glo Kinase Assay); format: biochemical; details: purified human SMG1 enzyme 5 nM, Upf1 peptide substrate, ATP 4 μM; qAC50 synonymous with IC50; read-out: Test Example 1 ADP-Glo IC50
human SMG1 enzyme, sequence (Q96Q15 whole entry): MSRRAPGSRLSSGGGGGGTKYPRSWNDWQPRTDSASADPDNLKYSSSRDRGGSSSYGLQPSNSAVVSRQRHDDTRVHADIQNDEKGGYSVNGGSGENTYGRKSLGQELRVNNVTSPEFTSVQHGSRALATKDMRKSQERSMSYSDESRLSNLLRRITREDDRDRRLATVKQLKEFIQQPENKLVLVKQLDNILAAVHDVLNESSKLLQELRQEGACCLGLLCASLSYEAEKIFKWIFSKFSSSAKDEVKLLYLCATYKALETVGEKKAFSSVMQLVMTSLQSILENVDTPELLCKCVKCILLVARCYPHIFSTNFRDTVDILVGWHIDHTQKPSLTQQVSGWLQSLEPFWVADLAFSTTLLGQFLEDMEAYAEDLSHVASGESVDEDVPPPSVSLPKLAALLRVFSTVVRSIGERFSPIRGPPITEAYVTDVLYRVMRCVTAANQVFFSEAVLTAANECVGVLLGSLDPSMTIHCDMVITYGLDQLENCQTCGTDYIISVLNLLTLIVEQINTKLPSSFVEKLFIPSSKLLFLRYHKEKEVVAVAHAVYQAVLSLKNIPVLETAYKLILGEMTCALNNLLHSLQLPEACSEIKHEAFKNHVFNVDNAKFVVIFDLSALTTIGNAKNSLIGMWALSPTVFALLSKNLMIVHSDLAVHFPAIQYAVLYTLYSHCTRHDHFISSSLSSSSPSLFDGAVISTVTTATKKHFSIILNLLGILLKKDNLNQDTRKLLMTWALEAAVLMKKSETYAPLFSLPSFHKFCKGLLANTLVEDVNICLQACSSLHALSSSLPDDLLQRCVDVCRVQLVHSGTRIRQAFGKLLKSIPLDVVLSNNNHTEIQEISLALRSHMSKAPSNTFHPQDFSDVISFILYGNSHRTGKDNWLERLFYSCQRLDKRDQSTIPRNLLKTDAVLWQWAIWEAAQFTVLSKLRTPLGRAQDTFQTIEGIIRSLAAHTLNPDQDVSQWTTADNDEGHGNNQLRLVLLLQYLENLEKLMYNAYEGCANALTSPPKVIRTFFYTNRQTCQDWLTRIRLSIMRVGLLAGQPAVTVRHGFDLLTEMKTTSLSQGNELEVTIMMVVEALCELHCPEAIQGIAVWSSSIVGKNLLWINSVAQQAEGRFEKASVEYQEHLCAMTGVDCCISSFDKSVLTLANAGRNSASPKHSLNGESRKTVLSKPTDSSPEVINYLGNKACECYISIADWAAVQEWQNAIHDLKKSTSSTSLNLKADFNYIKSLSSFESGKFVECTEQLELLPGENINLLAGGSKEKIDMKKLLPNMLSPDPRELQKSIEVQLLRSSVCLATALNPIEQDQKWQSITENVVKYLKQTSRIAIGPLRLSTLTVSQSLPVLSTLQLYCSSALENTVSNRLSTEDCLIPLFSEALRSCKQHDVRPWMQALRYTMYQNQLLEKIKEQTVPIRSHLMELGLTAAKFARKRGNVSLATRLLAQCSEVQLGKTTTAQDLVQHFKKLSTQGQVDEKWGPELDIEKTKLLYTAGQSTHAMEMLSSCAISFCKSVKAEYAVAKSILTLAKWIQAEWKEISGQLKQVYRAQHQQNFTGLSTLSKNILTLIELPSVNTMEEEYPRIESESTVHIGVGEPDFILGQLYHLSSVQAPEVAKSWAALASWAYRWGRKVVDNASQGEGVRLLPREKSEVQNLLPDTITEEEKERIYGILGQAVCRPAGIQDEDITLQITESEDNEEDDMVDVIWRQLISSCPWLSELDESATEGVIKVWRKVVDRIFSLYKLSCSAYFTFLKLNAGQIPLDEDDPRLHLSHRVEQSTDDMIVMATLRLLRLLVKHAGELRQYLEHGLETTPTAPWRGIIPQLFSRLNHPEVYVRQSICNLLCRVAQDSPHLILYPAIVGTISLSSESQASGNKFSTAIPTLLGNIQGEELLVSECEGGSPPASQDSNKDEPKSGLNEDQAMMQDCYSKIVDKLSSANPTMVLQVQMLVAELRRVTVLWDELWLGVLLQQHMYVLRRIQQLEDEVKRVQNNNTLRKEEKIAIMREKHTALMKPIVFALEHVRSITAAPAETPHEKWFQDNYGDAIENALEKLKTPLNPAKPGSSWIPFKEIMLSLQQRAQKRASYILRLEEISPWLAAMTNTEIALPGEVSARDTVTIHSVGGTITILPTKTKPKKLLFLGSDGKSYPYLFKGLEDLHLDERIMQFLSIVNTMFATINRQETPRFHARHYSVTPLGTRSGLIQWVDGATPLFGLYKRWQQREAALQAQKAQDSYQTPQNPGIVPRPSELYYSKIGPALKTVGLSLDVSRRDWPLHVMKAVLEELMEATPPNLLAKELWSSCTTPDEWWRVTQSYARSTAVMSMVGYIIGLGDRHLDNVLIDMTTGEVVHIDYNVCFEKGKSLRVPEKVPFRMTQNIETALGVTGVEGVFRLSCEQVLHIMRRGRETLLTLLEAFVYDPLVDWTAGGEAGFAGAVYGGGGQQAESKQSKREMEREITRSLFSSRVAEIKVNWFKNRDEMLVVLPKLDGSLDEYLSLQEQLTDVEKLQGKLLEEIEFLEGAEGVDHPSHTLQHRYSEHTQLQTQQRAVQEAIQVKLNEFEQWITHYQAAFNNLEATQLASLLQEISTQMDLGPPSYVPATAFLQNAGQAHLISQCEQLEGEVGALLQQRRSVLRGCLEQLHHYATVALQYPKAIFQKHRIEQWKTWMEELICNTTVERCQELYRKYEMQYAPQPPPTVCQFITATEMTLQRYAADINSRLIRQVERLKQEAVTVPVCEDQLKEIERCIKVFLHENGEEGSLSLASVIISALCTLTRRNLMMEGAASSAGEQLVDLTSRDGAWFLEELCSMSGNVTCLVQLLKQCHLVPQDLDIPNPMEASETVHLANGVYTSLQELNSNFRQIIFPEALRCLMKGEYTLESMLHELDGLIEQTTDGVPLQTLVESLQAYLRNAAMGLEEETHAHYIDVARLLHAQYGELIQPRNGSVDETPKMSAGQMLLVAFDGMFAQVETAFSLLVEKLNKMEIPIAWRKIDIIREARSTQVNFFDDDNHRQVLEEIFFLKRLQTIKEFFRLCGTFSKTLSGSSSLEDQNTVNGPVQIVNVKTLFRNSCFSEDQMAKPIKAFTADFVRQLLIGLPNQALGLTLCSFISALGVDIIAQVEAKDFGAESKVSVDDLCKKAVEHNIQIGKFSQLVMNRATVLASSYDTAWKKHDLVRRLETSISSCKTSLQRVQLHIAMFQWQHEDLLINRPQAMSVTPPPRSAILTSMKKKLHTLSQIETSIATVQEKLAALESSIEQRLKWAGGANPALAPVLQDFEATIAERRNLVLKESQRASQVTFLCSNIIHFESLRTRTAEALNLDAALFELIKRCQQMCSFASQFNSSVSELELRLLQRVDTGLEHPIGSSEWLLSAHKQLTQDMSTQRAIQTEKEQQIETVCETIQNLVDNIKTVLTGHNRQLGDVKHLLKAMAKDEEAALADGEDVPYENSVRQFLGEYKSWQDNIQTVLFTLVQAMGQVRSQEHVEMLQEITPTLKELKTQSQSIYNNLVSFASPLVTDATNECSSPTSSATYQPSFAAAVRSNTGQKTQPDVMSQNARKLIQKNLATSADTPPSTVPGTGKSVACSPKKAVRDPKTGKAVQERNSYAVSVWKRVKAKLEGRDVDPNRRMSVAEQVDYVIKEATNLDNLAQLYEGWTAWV
Method in brief: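 Purified human SMG1 (5 nM) preincubated with compound (1% DMSO) 15 min at room temperature in HEPES pH 7.5 buffer with MnCl2, then reacted 60 min with Upf1 peptide (8 μg/mL) and 4 μM ATP. ADP formed measured by ADP-Glo luminescence; IC50 by 4-parameter logistic fit, normalised to DMSO (0%) and enzyme-free (−100%) wells.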

[2] = tested on: Snhg1 transcript in tumor tissues of mice subcutaneously implanted with EMT6 murine breast cancer cell line; test: Evaluation of NMD inhibitory activity in vivo (Snhg1 transcript in EMT6 tumor tissue after oral administration); details: 6 hours after administration, BALB/c mice
Description: The NMD inhibitory activity of a compound of the present invention or a pharmaceutically acceptable salt thereof in vivo can be measured, for example, by the method described below. Using mice subcutaneously implanted with EMT6 murine breast cancer cell line, tumor tissues 6 hours after oral administration of a test substance are excised, and the increase in Snhg1 transcript is quantified as an indicator of NMD inhibition in the tumor, in the same manner as in the in vitro method.
In this test, NMD inhibitory activity in tumor tissues was evaluated when a test substance was orally administered to mice subcutaneously implanted with EMT6 murine breast cancer cell line. As an indicator of NMD inhibitory activity, the increase in the transcript of Snhg1, an NMD target gene, was quantified. First, BALB/c mice were subcutaneously implanted with EMT6 cells (ATCC), and engraftment was confirmed 7 days later. Six hours after administration of the test substance, mice were euthanized, and the collected tumor tissues were cryopreserved. RNA was extracted from the tumor tissues using the illustra RNAspin Mini RNA Isolation kit (GE Healthcare Life Sciences). After synthesizing cDNA using the High-Capacity cDNA Reverse Transcription Kits (Applied Biosystems, 4368813), the cDNA was mixed with PrimeTime Gene Expression Master Mix (Integrated DNA Technologies) and various probes, and gene expression was quantified by QuantStudio 6 Flex (Thermo Fisher Scientific Inc.). For the probe for the Snhg1 gene, which is an NMD target, Mm.PT.58.44039547 (FAM) (Integrated DNA Technologies) was used, and for the probe for the Gapdh gene, which is an endogenous control, Mm99999915_g2 (VIC-PL) (Applied Biosystems) was used. The relative quantification of Snhg1 transcripts in each sample was calculated by the ΔΔCT method using Gapdh as an endogenous control, and the expression level of Snhg1 in each test substance administration group was calculated by setting the expression level of the Vehicle group (0.5% methylcellulose administration group) to 1.

SMILES | EC50 [1] | IC50 (human SMG1 enzyme) | Snhg1 fold change ([2]; 12.5 mg/kg oral) | Snhg1 fold change ([2]; 10 mg/kg oral) | Snhg1 fold change ([2]; 30 mg/kg oral)
CS(=O)(=O)O.[2H]C([2H])([2H])Oc1ccccc1-c1nccc2[nH]c(=O)c(-c3nc4cnc(Cl)cc4[nH]3)cc12 [Example 133, 3-(6-chloro-1H-imidazo[4,5-c]pyridin-2-yl)-5-{2-[(2H3)methyloxy]phenyl}-1,6-naphthyridin-2(1H)-one methanesulfonate] | 44 nM | 2.4 nM | 8.2 |  | 
CS(=O)(=O)O.C[C@@H]1C[C@@H](F)CN1c1nc(Cl)cc2[nH]c(-c3cc4cnccc4[nH]c3=O)nc12 [Example 118, 3-{6-chloro-4-[(2R,4R)-4-fluoro-2-methylpyrrolidin-1-yl]-1H-imidazo[4,5-c]pyridin-2-yl}-1,6-naphthyridin-2(1H)-one methanesulfonate] | 34 nM | 1.8 nM |  | 9.1 | 
CCc1nccc2[nH]c(=O)c(-c3nc4c(C5CCOCC5)nc(Cl)cc4[nH]3)cc12.CS(=O)(=O)O [Example 127, 3-[6-chloro-4-(tetrahydro-2H-pyran-4-yl)-1H-imidazo[4,5-c]pyridin-2-yl]-5-ethyl-1,6-naphthyridin-2(1H)-one methanesulfonate] | 34 nM | 0.96 nM |  | 6.2 | 
CS(=O)(=O)O.Cc1ccccc1-c1nccc2[nH]c(=O)c(-c3nc4c(NCC(F)(F)F)nc(Cl)cc4[nH]3)cc12 [Example 129, 3-{6-chloro-4-[(2,2,2-trifluoroethyl)amino]-1H-imidazo[4,5-c]pyridin-2-yl}-5-(2-methylphenyl)-1,6-naphthyridin-2(1H)-one methanesulfonate] | 17 nM | 3.5 nM |  | 9.0 | 
Cc1nc(Cl)cc2[nH]c(-c3cc4c(-c5ccccc5Cl)nccc4[nH]c3=O)nc12 [Example 29, 3-(6-chloro-4-methyl-1H-imidazo[4,5-c]pyridin-2-y1)-5-(2-chlorophenyl)-1,6-naphthyridin-2(1H)-one] | 56 nM | 2 nM |  |  | 4.6
Cc1nn(C(F)F)c(C)c1-c1nccc2[nH]c(=O)c(-c3nc4c(N5C[C@@H](O)C[C@H]5C)nc(Cl)cc4[nH]3)cc12 [Example 85, 3-{6-chloro-4-[(2R,4S)-4-hydroxy-2-methylpyrrolidin-1-yl]-1H-imidazo[4,5-c]pyridin-2-yl}-5-[1-(difluoromethyl)-3,5-dimethyl-1H-pyrazol-4-yl]-1,6-naphthyridin-2(1H)-one] | 0.47 nM | 0.39 nM |  | 6.9 | 

Further lines, with some results ahead:

EC50 [1] | IC50 (human SMG1 enzyme) | SMILES | Snhg1 fold change ([2]; 12.5 mg/kg oral) | Snhg1 fold change ([2]; 10 mg/kg oral) | Snhg1 fold change ([2]; 30 mg/kg oral)
22 nM | 0.78 nM | COc1ccc(F)cc1-c1nccc2[nH]c(=O)c(-c3nc4c(C)nc(Cl)cc4[nH]3)cc12.CS(=O)(=O)O [Example 131, 3-(6-chloro-4-methyl-1H-imidazo[4,5-c]pyridin-2-yl)-5-(5-fluoro-2-methoxyphenyl)-1,6-naphthyridin-2(1H)-one methanesulfonate] |  | 7.1 | 
5.3 nM | 0.63 nM | CS(=O)(=O)O.[2H]C([2H])([2H])Oc1cccc(F)c1-c1nccc2[nH]c(=O)c(-c3nc4c(CC)nc(Cl)cc4[nH]3)cc12 [Example 136, 3-(6-chloro-4-ethyl-1H-imidazo[4,5-c]pyridin-2-yl)-5-{2-fluoro-6-[(2H3)methyloxy]phenyl}-1,6-naphthyridin-2(1H)-one methanesulfonate] |  | 4.8 | 
4.3 nM | 0.31 nM | CCc1cc(OC)c(-c2nccc3[nH]c(=O)c(-c4nc5c(CC)nc(Cl)cc5[nH]4)cc23)cn1.CS(=O)(=O)O [Example 139, 3-(6-chloro-4-ethyl-1H-imidazo[4,5-c]pyridin-2-yl)-5-(6-ethyl-4-methoxypyridin-3-yl)-1,6-naphthyridin-2(1H)-one methanesulfonate] |  | 7.5 | 
